# Test results taken from US6787569B1, “Therapeutic guanidines” (Cambridge NeuroScience, Inc., priority 1994, dated 2004).
# Where a name gives a salt, the structure may show the parent alone. Read-outs that look alike come from different tables or passages of the source.
# Tests used:
# [1] = biological target: Type II neuronal voltage-activated sodium channels (Rattus norvegicus, UniProt P04775); test: cell-based
# [2] = test system: veratridine-induced 3H-glutamate release from brain nerve terminals (voltage-activated presynaptic Na channels); test: Inhibition of veratridine-induced 3H-glutamate release, rapid superfusion of synaptosomes; type: biochemical, rat
# [3] = test system: depolarization-induced 3H-glutamate release from brain nerve terminals; test: Inhibition of 3H-glutamate release, high [K+] depolarization, rapid superfusion of synaptosomes; type: biochemical; conditions: rat brain synaptosomes; for % Inhibition of ^3H-Glu Rel @ 3 μM: 3 μM compound
# [4] = test system: presynaptic Ca channels; test: Inhibition of 45Ca uptake through presynaptic Ca channels in brain synaptosomes; type: biochemical, mammalian; conditions: high K+ depolarization-induced 45Ca uptake, read-out: IC50, block of ^45Ca uptake
# Method: Compounds of the invention were tested to determine their ability to inhibit voltage-activated calcium channels in nerve terminals of mammalian brain. Said voltage-activated calcium channels directly control neurotransmitter release (see Nachsen, D. A. et al., J. Gen Physiol., 79:1065-1087 (1982)). The uptake of ^45Ca into brain synaptosomes was performed by an adaptation of the method of Nachsen and Blaustein (J. Physiol., 361:251-258 (1985)), as previously described [Goldin et al., PCT/US92/01050]. The principle of the method involves opening ion permeation through synaptosomal calcium channels by high K^+-induced depolarization of the synaptosomal preparation. The rapid component of ^45Ca uptake measured by this procedure is mediated by presynaptic calcium channels.
# Briefly, synaptosomes are prepared by the method of Hajos (Brain Res., 93:485-489 (1975)). Freshly prepared synaptosomes (8 μl) were suspended In low potassium “LK” buffer (containing 3 mM KCl). Test compounds in 8 μl LK were added to synaptosomes to final concentrations ranging from 0.3 μM to 100 μM, and the mixture was preincubated for 5 minutes at room temperature. ^45Ca uptake was then initiated by adding isotope in either LK or in buffer (“HK”) containing high [potassium] (150 mM KCl). After 5 seconds, the ^45Ca uptake was stopped by adding 0.9 ml quench buffer (LK+10 mM EGTA). This solution was then filtered under vacuum and the filters washed with 15 ml of quench buffer.
# Washed filters were subjected to scintillation spectrophotometry to determine the extent of ^45Ca uptake. Net depolarization-induced ^45Ca uptake was determined for each concentration of each compound tested, as the difference between ^45Ca uptake in HK and LK buffers. Results were plotted as % inhibition of depolarization-induced ^45Ca uptake vs. [compound] for each compound tested. Representative IC50 for inhibition of depolarization-induced ^45Ca uptake are presented below in the tables (2a-2d) below which together are identified as Table 2.
# [5] = test system: L-type Ca channels; test: Inhibition of 45Ca uptake through L-type (dihydropyridine-sensitive) calcium channels in GH4C1 pituitary cells; type: cell-based; conditions: high K+ depolarization-induced 45Ca uptake, read-out: IC50, block of ^45Ca uptake
# Method: Compounds of the invention representative of each of the major classes of agents claimed herein were tested to determine their ability to inhibit voltage-activated, dihydropyridine-sensitive L-type calcium channels in clonal GH4C1 pituitary cells. Said voltage-activated L-type calcium channels are found in cardiac muscle, vascular smooth muscle, and the cardiac Purkije cell conduction system. They are the sites of action of the major classes of Ca antagonists employed to treat hypertension, angina, cardiac arrhythmias, and related disorders. L-type Ca channels are also the sites of action of certain neuroprotective dihydropyridine Ca antagonists such as nimodipine.
# The uptake of ^45Ca into GH4C1 cells was performed by an adaptation of the method of Tan, K. et al. (J. Biol. Chem., 259:418-426 (1984)). The principle of the method involves activating ion permeation through synaptosomal calcium channels by high K^+-induced depolarization of the synaptosomal preparation. The uptake of ^45Ca measured by this procedure is mediated by presynaptic L-type calcium channels, and is sensitive to dihydropyridine, phenylalkylamine, and benzothiazipine Ca antagonists at therapeutically relevant concentrations [Tashjian et al., ibid.]. The adaptation of the aforementioned method involves growing GH4C1 cells in 96-well culture plates, and is designed to provide a rapid and quantitative determination of the potency of various compounds in inhibiting ^45Ca uptake through L-type Ca channels.
# GH4 cells, stored in liquid nitrogen, are suspended in 15 ml growth medium (Ham's F-10 medium plus 15% heat-inactivated horse serum and 2.5% heat-inactivated fetal bovine serum). The cells are centrifuged, resuspended, and then added to T-75 flasks containing 12-15 mls Growth Medium, and incubated at 37° C. for approximately 1 week. The cells are them removed from the T75 flask after dissociation from the walls of the flask by treatment for 5 minutes at 37° C. with 1 mg/ml Viocase. The Viocase is decanted, and the cells are resuspended in ˜200 ml of Growth Medium. The cells are then aliquoted (200 μl/well) into each well of several 96 well plates. The cells are then grown under the aforementioned conditions for 3-4 weeks, with replacement of Growth Medium occurring twice per week. Cells are fed growth medium 24 hours before they are employed for ^45Ca uptake determinations.
# At the time of the assay, media Is aspirated from each 96-well plate using a manifold designed to allow 50 μL of liquid to remain in each well. Each plate is washed and aspirated twice with a low K^+ buffer solution “LKHBBS” (in mM 5 KCl, 145 NaCl, 10 Hepes, 1 MgCl2, […], 10 glucose, pH 7.4), 200 μl/well. Each plate is incubated for 10 minutes at 37° C., and aspirated as above. To each well of each plate, 50 μl of HBBS containing the drug to be tested in twice the final concentration is added. The plates are incubated for 10 minutes at room temperature. To each well of each plate, 50 μl of either of two solutions are added:
# (a) LKHBBS containing 1 μCi of carrier-free ^45Ca, or
# (b) HKHBBS (a high K^+ buffer containing 150 mM KCl and no NaCl, but otherwise identical to LKHBBS).
# Each plate is then incubated for 5 minutes at room temperature, aspirated as above, and quenched with 200 μl/well of Quench Buffer (Ca-free LKHBBS containing 10 mM Tris-EGTA). Each plate is aspirated and rinsed with Quench Buffer a second time, then carefully aspirated to dryness. To each well of each plate 100 μl of High Safe II scintillation fluid is added. The plates are sealed, shaken, and subjected to scintillation spectrophotometry on a Microbeta 96-well Scintillation Counter (Wallac, Gaithersburg, Md., USA).
# Net depolarization-induced ^45Ca uptake was determined for each concentration of each compound tested, as the difference between ^45Ca uptake in HKBBS and LK buffers. Results were plotted as % inhibition of depolarization-induced ^45Ca uptake vs. [compound] for each compound tested.
# [6] = test system: audiogenic seizures in DBA/2 mice; test: In vivo anticonvulsant activity in the DBA/2 mouse model (audiogenic seizures); conditions: 30 minutes prior to auditory stimulus
# Method: Compounds were tested for their effectiveness in preventing seizures in DBA/2 mice which have a unique sensitivity to auditory stimulation. Exposure to loud high-frequency sounds can trigger seizure activity in these animals. This sensitivity develops from postnatal day 12 and peaks around day 21 and slowly diminishes as the animals mature. The unusual response to auditory stimulation in this strain of mouse is believed to be due to a combination of early myelination (causing an unusually low excitatory threshold) and delayed development of inhibitory mechanisms. Glutamate, the predominant excitatory neurotransmitter, has been implicated in this response. Blockade of glutamate receptors of the NMDA and AMPA subtypes, prevents audiogenic seizures in these mice. Compounds that block the release of glutamate should similarly act to prevent seizure activity, and may be therapeutic in other neurologic disorders such as stroke, which also involves glutamate-mediated damage.
# Mice were injected intraperitoneally with the compound specified in Table V below or with vehicle control, 30 minutes prior to being placed in a bell jar and turning on the auditory stimulus (12 KHz sine wave at 110-120 db). Administered doses are specified in Table V as milligram of compound per kilogram bodyweight of mouse. The auditory stimulus was left on for 60 seconds and mice reactions were timed and recorded.
# Percentage inhibition was determined with reference to vehicle controls.
# [7] = veratridine (100 μM)-induced, tetrodotoxin-sensitive uptake, CHO cells expressing rat brain Type II Na channels, read-out: IC50, block of ^14C guanidinium uptake
# Sequence of Type II neuronal voltage-activated sodium channels (P04775 whole entry, the tested form may be a part): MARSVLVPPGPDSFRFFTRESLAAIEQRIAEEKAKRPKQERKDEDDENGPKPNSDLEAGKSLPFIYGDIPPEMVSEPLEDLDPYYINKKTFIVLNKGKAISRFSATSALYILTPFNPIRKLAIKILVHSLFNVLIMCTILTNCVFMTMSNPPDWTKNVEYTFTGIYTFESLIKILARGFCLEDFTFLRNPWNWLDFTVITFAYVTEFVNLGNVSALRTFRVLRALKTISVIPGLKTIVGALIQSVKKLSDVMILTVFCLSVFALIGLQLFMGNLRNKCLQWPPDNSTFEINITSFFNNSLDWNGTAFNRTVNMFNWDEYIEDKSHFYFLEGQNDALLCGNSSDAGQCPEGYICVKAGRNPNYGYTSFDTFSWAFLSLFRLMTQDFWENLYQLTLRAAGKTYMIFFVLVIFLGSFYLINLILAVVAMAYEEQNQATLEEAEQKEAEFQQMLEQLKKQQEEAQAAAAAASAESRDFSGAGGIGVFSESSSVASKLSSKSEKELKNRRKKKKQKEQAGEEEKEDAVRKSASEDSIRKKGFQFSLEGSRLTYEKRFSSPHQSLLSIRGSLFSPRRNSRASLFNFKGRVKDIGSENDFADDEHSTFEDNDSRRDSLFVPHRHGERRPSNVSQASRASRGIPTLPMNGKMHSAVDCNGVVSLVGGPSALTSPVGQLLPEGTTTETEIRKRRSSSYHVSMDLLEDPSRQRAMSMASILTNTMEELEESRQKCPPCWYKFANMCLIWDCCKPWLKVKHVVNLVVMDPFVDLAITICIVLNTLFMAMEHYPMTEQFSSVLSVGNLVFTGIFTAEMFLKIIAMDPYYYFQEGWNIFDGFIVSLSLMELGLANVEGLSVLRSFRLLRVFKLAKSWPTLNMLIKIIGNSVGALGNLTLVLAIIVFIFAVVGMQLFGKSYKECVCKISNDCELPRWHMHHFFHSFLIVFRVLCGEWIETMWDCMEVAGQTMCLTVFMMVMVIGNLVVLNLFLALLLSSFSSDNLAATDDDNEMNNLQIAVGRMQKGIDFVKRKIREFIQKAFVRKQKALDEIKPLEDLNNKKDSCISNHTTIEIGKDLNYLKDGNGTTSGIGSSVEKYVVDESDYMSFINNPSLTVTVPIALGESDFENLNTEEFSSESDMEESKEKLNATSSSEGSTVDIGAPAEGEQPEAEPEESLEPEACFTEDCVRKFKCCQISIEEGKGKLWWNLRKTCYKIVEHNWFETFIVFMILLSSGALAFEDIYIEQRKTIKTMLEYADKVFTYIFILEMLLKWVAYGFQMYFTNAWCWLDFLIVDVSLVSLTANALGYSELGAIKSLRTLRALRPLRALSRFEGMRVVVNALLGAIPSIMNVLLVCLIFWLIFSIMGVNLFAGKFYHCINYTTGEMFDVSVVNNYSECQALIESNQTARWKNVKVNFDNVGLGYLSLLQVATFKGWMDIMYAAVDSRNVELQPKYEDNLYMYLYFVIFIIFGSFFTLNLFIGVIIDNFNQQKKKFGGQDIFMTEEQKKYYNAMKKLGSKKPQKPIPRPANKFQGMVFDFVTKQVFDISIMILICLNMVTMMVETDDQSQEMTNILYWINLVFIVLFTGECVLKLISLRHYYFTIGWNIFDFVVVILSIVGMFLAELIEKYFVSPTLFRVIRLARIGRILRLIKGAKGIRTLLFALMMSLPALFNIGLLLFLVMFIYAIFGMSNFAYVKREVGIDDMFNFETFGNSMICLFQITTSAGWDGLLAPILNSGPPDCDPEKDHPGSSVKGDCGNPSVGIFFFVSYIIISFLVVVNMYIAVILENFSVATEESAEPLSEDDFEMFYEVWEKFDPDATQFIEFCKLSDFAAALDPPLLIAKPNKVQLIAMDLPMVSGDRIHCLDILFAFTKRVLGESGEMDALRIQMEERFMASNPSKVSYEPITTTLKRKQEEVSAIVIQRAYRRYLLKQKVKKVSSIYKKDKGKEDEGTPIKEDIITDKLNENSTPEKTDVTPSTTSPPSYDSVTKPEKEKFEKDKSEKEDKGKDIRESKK
SMILES,"IC50 [1, 7]",% Inhibition of ^3H-Glu Rel @ 1 μM (*veratridine-induced glutamate release assay) [2],% Inhibition of ^3H-Glu Rel @ 3 μM [3],IC50 [4],IC50 [5],IC50 [1],"% Inhibition of ^3H-Glu Rel @ 1 μM (*veratridine-induced glutamate release assay) ([2]; 1 μM compound, 50 μM veratridine-induced release, rat brain synaptosomes)",Audiogenic Response % Inhib. ([6]; 10 mg/kg intraperitoneally),Audiogenic Response % Inhib. ([6]; 20 mg/kg intraperitoneally),Audiogenic Response % Inhib. ([6]; 40 mg/kg intraperitoneally),% Inhibition of ^3H-Glu Rel @ 1 μM ([3]; 1 μM compound)
"CC(C)(C)c1ccc(NC(=N)Nc2ccc(C(C)(C)C)cc2)cc1 [Example 13, N,N′-Bis(4-tort-butylphenyl)guanidine]",0.9 µM,62* %,70%,1.5 µM,4.1 µM,,,,,,
"CCC(C)c1ccc(N(Cc2ccc(C(C)(C)C)cc2)C(=N)N)cc1 (stereo not drawn) [Example 1, N-(4-sec-Butylphenyl)-N-(4-tert-butylbenzyl)guanidine.HCl]",,,61%,6.1 µM,1.7 µM,0.8 µM,67* %,54%,80.5%,91%,
"CCC(C)c1ccc(NC(=N)Nc2ccc(C(C)CC)cc2)cc1 (stereo not drawn) [Example 4, N,N′-bis(4-sec-Butylphenyl)guanidine.HCl]",0.8 µM,,85%,11.2 µM,2.1 µM,,,,,,52%
